Data: patent US20210337802A1, “COMPOSITION AND PROCESS FOR RECONDITIONING RESPIRATORS AND OTHER PERSONAL PROTECTIVE EQUIPMENT” (Tygrus, LLC, priority 2020, published 2021)

What was measured:
Type in all cases: physicochemical
[1] = Conductivity of diluted samples (EPA method 120.1); conditions: samples diluted with de-ionized water; Example materials at 1% by volume in water
Excerpt: In order to test for conductivity the samples are each diluted with de-ionized water for analysis. The testing is completed using a Mettler Toledo Seven Excellence Meter with a conductivity probe following EPA method 120.1.

[2] = Freeze point by DSC (USP <891>); conditions: Example materials at 1% by volume in water
Method: In order to evaluate freezing point, the samples are analyzed using a TA Instruments Q100 DSC equipped with an RCS-90 cooling system following USP <891>.

[3] = Acidity titration for hydrogen ion content (ASTM D1067 Test Method A); conditions: titrated to pH 8.6; Example materials at 1% by volume in water
Excerpt: The testing was completed using a Metrohm 826 Titrando equipped with a pH probe.

[4] = Excess hydrogen ion concentration and pH after admixing with water; conditions: 5 ml material in 5 ml deionized and distilled water, standard temperature and pressure
Method: The excess hydrogen ion concentration is measured as greater than 15% by volume and the pH of the material is determined to be 1.

Q: With “hydrogen (1+), triaqua-μ3-oxotri sulfate (1:1) [Example I]” as the substance, how does the Conductivity [1] read?
A: The Conductivity was 551 mS/cm.

Q: And the “Melting Temperature (freeze point)” value [2]?
A: The value was −9.07 °C.

Q: And the “Acidity @ pH 8.6” value [3]?
A: The value was 1307.28 meq/L.

Q: What about the pH [4] of the same substance?
A: Its pH is 1.
